This experiment has as its system MCF7 cells. As to the kind of experiment: Drug response assay (CellTiter-Glo). Type of experiment: cell-based, human. The following applies: Cas9-expressing vs parental MCF7 cells; 0 μM-100 μM, 72 h. As to the method: To further test the functional implications of Cas9-induced p53 activation, compared the response of parental and Cas9-expressing MCF7 cells to the MDM2-inhibitor nutlin-3 was compared. […] Without being bound by theory, these findings conclude that Cas9-induced p53 activation can affect both genetic and chemical perturbation assays.
MCF7 cells were seeded at a density of 9,000 cells per well in a 96-well plate. The next day, media was washed and fresh media containing nutlin-3 (Sigma-Aldrich) was added to the corresponding wells in a concentration range of 0 μM-100 μM. After 72 h of incubation, levels of ATP were measured as a surrogate marker for cell viability using the CellTiter-Glo assay (Promega). Luminescence measurements were acquired in a SpectraMax reader (ATC) using an integration time of 500 ms.
Background: In ATP-based viability assays light output follows the ATP content of the culture.

Turning to `COc1ccc(C2=N[C@@H](c3ccc(Cl)cc3)[C@@H](c3ccc(Cl)cc3)N2C(=O)N2CCNC(=O)C2)c(OC(C)C)c1` [nutlin-3], the drug sensitivity result was “modest, but significant, increase”.

For the origin of these results see patent US12297426B2, “DNA damage response signature guided rational design of CRISPR-based systems and therapies” (THE BROAD INSTITUTE, INC., priority 2019, dated 2025).
